Counter-ions that a name gives are not always drawn.
Legend:
[1] = target: T1, human cannabinoid CB2 receptor (Homo sapiens, UniProt P34972); assay: Cannabinoid CB2 receptor agonist activity in yeast cells expressing the human CB2 receptor (FDGlu fluorescence); assay type: cell-based; details: 24 hours at 30° C., read-out: pEC50 at the CB2 receptor (agonist activity) (converted)
T1 construct: expressed in transfected cells; host or cells: Saccharomyces cerevisiae strain MMY23
Description: Yeast (Saccharomyces cerevisiae) cells expressing the human cannabinoid CB2 receptor were generated by integration of an expression cassette into the ura3 chromosomal locus of yeast strain MMY23. This cassette consisted of DNA sequence encoding the human CB2 receptor flanked by the yeast GPD promoter to the 5′ end of CB2 and a yeast transcriptional terminator sequence to the 3′ end of CB2. MMY23 expresses a yeast/mammalian chimeric G-protein alpha subunit in which the C-terminal 5 amino acids of Gpa1 are replaced with the C-terminal 5 amino acids of human Gαi1/23 (as described in Brown et al. (2000), Yeast 16:11-22). Cells were grown at 30° C. in liquid Synthetic Complete (SC) yeast media (Guthrie and Fink (1991), Methods in Enzymology, Vol. 194) lacking uracil, tryptophan, adenine and leucine to late logarithmic phase (approximately 6 OD600/ml).
Agonists were prepared as 10 mM solutions in DMSO. EC50 values (the concentration required to produce 50% maximal response) were estimated using 4 fold dilutions of between 3- and 5-fold (BiomekFX, Beckman) into DMSO. Agonist solutions in DMSO (1% final assay volume) were transferred into black microtitre plates from NUNC Greiner (384-well). Cells were suspended at a density of 0.2 OD600/ml in SC media lacking histidine, uracil, tryptophan, adenine and leucine and supplemented with 10 mM 3-aminotriazole, 0.1M sodium phosphate pH 7.0, and 120 μM fluorescein di-β-D-glucopyranoside (FDGlu). This mixture (50 ul per well) was added to agonist in the assay plates (Multidrop 384, Labsystems). After incubation at 30° C. for 24 hours, fluorescence resulting from degradation of FDGlu to fluorescein due to exoglucanase, an endogenous yeast enzyme produced during agonist-stimulated cell growth, was determined using a fluorescence microtitre plate reader (Tecan Spectrofluor or LJL Analyst excitation wavelength: 485 nm; emission wavelength: 535 nm). Fluorescence was plotted against compound concentration and iteratively curve fitted using a four parameter fit to generate a concentration effect value.
Efficacy (Emax) was calculated from the equation
Emax=Max[compound X]−Min[compound X]/Max[HU210]−Min[HU210]×100% • where Max[compound X] and Min[compound X] are the fitted maximum and minimum respectively from the concentration effect curve for compound X, and Max[HU210] and Min[HU210] are the fitted maximum and minimum respectively from the concentration effect curve for (6aR,10aR)-3-(1,1′-Dimethylheptyl)-6a,7,10,10a-tetrahydro-1-hydroxy-6,6-dimethyl-6H-dibenzo[b,d]pyran-9-methanol (HU210; available from Tocris). Equieffective molar ratio (EMR) values were calculated from the equation
EMR=EC50[compound X]/EC50[HU210] • Where EC50 [compound X] is the EC50 of compound X and EC50 [HU210] is the EC50 of HU210. • pEC50 is the negative log of the EC50.

[2] = target: T2, human cloned 5-HT6 receptors (Homo sapiens, UniProt P50406); assay: Cyclase assay (cAMP production in membranes of HeLa 5HT6 cells, antagonism of 5-HT); assay type: biochemical; details: cyclase assay with 5-HT at 4xEC50, read-out: fpKi (functional pKi, antagonist potency) (converted)
T2 construct: expressed in transfected cells; host or cells: HeLa cells (membranes)
T2 sequence (P50406 whole entry): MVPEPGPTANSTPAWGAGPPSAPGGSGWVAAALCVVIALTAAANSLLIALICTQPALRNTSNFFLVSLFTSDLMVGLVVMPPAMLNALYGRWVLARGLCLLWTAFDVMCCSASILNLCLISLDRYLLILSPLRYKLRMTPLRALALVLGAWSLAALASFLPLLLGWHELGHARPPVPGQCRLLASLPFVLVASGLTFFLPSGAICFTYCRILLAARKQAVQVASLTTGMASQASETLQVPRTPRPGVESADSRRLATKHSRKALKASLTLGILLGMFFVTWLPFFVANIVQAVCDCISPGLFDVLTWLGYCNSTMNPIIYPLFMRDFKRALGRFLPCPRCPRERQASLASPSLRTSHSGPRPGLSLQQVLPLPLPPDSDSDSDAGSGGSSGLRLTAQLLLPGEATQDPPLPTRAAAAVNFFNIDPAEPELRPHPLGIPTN
Experimental: 0.5 μl of test compound in 100% dimethylsulfoxide (DMSO) was added to a white, solid 384 well assay plate (for dose response measurements the top of the concentration range is 7.5 μM final). 10 μl of washed membranes of HeLa 5HT6 cells (for preparation see WO 98/27081) in basic buffer (50 mM HEPES pH 7.4 (KOH), 1 mM MgCl2, 100 mM NaCl, 1 μl/ml 3-isobutyl-1-methylxanthine (IBMX) (Sigma-Aldrich)) was added to all wells followed by 10 μl 2×ATP buffer (100 μl/ml ATP and 1 μl/ml 3-Isobutyl-1-methylxanthine (IBMX) (Sigma-Aldrich)) with 5-HT (at a concentration equivalent to a dose response of 4×EC50). The resultant mixture was then incubated at room temperature for 30-45 minutes to allow cAMP production.
cAMP production was then measured using the DiscoveRx™ HitHunter™ chemiluminescence cAMP assay kit (DiscoveRx Corporation, 42501 Albrae Street, Fremont, Calif. 94538; Product Code: 90-0004L) or any other suitable cAMP measurement assay.
IC50 values were estimated from arbitrary designated unit (ADU) measurements from a Perkin Elmer Viewlux instrument using a four parameter logistic curve fit within EXCEL (Bowen, W. P. and Jerman, J. C. (1995), Nonlinear regression using spreadsheets. Trends in Pharmacol. Sci., 16, 413-417). Functional Ki values were calculated using the method of Cheng, Y. C. and Prussof, W. H. (Biochemical Pharmacol (1973) 22 3099-3108). pIC50 and fpKi are the negative log 10 of the molar IC50 and functional Ki respectively.

T1 sequence (P34972 whole entry): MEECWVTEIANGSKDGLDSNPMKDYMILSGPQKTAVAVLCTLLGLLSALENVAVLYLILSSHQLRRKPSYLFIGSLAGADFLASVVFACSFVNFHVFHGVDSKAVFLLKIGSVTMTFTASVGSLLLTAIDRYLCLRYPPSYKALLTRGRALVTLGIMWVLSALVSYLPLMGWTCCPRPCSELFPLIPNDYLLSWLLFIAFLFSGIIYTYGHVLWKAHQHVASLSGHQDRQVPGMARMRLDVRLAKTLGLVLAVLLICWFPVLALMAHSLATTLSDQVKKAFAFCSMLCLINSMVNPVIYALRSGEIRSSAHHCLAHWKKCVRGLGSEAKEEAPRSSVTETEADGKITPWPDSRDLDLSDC

| EC50 [1] [µM] | Ki [2] [µM] | SMILES |
| --- | --- | --- |
| ≤ 10 | < 0.1 | CN(C)Cc1cccc2cc(S(=O)(=O)c3ccccc3)cnc12 [Example 7, N,N-Dimethyl-1-[3-(phenylsulfonyl)quinolin-8-yl]methanamine] |
| ≤ 10 | < 0.1 | CC1CCCN1Cc1cccc2cc(S(=O)(=O)c3ccccc3)cnc12 (centres unmarked) [Example 8, 8-[(2-Methylpyrrolidin-1-yl)methyl]-3-(phenylsulfonyl)quinoline] |
| < 1 | < 0.1 | CC(C)N(C)C(C)c1cccc2cc(S(=O)(=O)c3ccccc3)cnc12 (centres unmarked) [Example 20, N-Methyl-N-{1-[3-(phenylsulfonyl)quinolin-8-yl]ethyl}propan-2-amine hydrochloride] |
| ≤ 10 | < 0.1 | O=S(=O)(c1ccc(F)cc1)c1cnc2c(CN3CCCC3)cccc2c1 [Example 23, 3-[(4-Fluorophenyl)sulfonyl]-8-(1-pyrrolidinylmethyl)quinoline hydrochloride] |
| ≤ 10 | ≤ 1 | CC(=O)N1CCN(Cc2cccc3cc(S(=O)(=O)c4ccccc4)cnc23)CC1 [Example 24, 8-[(4-acetyl-1-piperazinyl)methyl]-3-(phenylsulfonyl)quinoline hydrochloride] |
| < 1 | < 0.1 | CC(C)NCc1cccc2cc(S(=O)(=O)c3ccccc3)cnc12 [Example 25, N-{[3-(phenylsulfonyl)-8-quinolinyl]methyl}-2-propanamine hydrochloride] |
| ≤ 10 | < 0.1 | CNCc1cccc2cc(S(=O)(=O)c3ccccc3)cnc12 [Example 26, N-methyl-1-[3-(phenylsulfonyl)-8-quinolinyl]methanamine hydrochloride] |
| < 1 | > 1 | O=S(=O)(c1ccccc1)c1cnc2c(CN3CCCC(F)(F)C3)cccc2c1 [Example 27, 8-[(3,3-Difluoropiperidin-1-yl)methyl]-3-(phenylsulfonyl)quinoline hydrochloride] |
| < 1 | < 0.1 | COC1CCN(Cc2cccc3cc(S(=O)(=O)c4ccccc4)cnc23)CC1 [Example 28, 8-[(4-Methoxypiperidin-1-yl)methyl]-3-(phenylsulfonyl)quinoline hydrochloride] |
| ≤ 10 | ≤ 1 | CC1CCCCN1Cc1cccc2cc(S(=O)(=O)c3ccccc3)cnc12 (centres unmarked) [Example 29, 8-[(2-Methyl-1-piperidinyl)methyl]-3-(phenylsulfonyl)quinoline hydrochloride] |
| < 1 | < 0.1 | CC1CCCN(Cc2cccc3cc(S(=O)(=O)c4ccccc4)cnc23)C1 (centres unmarked) [Example 30, 8-[(3-Methyl-1-piperidinyl)methyl]-3-(phenylsulfonyl)quinoline hydrochloride] |
| ≤ 10 | < 0.1 | O=S(=O)(c1ccccc1)c1cnc2c(CN3CCC4(CC3)OCCO4)cccc2c1 [Example 31, 8-(1,4-Dioxa-8-azaspiro[4.5]dec-8-ylmethyl)-3-(phenylsulfonyl)quinoline hydrochloride] |
| < 1 | ≤ 1 | O=S1(=O)CCN(Cc2cccc3cc(S(=O)(=O)c4ccccc4)cnc23)CC1 [Example 32, 8-[(1,1-Dioxido-4-thiomorpholinyl)methyl]-3-(phenylsulfonyl)quinoline hydrochloride] |

Source: US20090012056A1, “Quinoline Compounds Capable of Binding the Cb2 and/or the 5-Ht6 Receptor” (GLAXO GROUP LIMITED, priority 2005, published 2009)
